According to patent US9695164B2, “Crystalline forms of pyrroloquinoline quinone disodium salt” (Zhucheng Haotian Pharm Co., Ltd., priority 2012, dated 2017):
“Also recorded” adds a separate entry of the source. Where a name gives a salt, the structure may show the parent alone.

How the values were obtained:
Type in all cases: physicochemical
[1] = Approximate solubility of PQQ disodium salt in various solvents by gravimetric analysis; conditions: for Solubility @ 25: 25° C.; for Solubility @ 50: 50° C.
Description: Before preparation of the crystals, conventional methods may be employed to measure the solubility of the PQQ disodium salt in different solvents, and subsequently appropriate solvent(s) may be selected to prepare the crystals of the invention. For example, the following method may be used to measure the solubility of the PQQ disodium salt in various solvents:
(1) At 25° C. and 50° C. respectively, about 25 mg PQQ disodium salt is stirred in 1 ml solvent to equilibrium for at least 24 h, and subsequently the solution is filtered, wherein the solvent in the liquid part is volatized under vacuum completely. The approximate solubility of the raw material in the solvent is determined by gravimetric analysis.
Gravimetric analysis: a volume (generally 0.5 mL) of the filtrate is weighed accurately and placed in a vessel which has already been dried and weighed, wherein the weight of the vessel is indicated as Mhollow. Subsequently, the total weight of the vessel and the filtrate is measured and indicated as M0. Then, the weight of the filtrate is M0−Mhollow. After the solvent is volatized completely under vacuum, the total weight is measured accurately again (indicated as M1). Then, the mass of the precipitated solid is M1−Mhollow, and the mass of the solvent is M0−M1. As such, the approximate solubility of the raw material in this solvent is: X(g)=[(M1−Mhollow)/(M0−M1)]×100(g)

[2] = Hygroscopic analysis (DVS); conditions: 25° C.; for moisture absorption / hygroscopicity compared among crystal forms (overlay of DVS graphs) / hygroscopicity (in words): disodium salt; for hygroscopicity compared among crystal forms (overlay of DVS graphs): at 80% RH; for variation of hygroscopicity: conventional storage environment of 40-80 RH
Description: 4. Hygroscopic Analysis As indicated by DVS (FIG. 4), crystalline Form A absorbs 1.6% of moisture at 40% RH, 2.3% at 65% RH, and 2.8% at 80% RH. […] Instrument model: SMS DVS Intrinsic, 0-95% RH, Temperature: 25° C. As described above, crystal E was prepared according to Example 1 in patent literature 1. The hygroscopic analysis graph of crystal E (shown in FIG. 21) was obtained using the DVS test method and conditions used in the foregoing examples, and its hygroscopic property was compared with those of crystals A and B according to the invention (the results are shown in FIG. 22).

[3] = Solvent content (thermogravimetric analysis, Table 3); conditions: disodium salt
Description: 2. Thermogravimetric Analysis
(the theoretical weight loss of a water molecule is 4.6%). It is possibly a hydrate. The peak temperature of decomposition is 312.5° C.
Instrument model: Netzsch TG 209F3
Temperature range: 30-400° C.
Protection gas: 15 mL/min

[4] = Crystal form stability (Table 3); conditions: disodium salt
[5] = solvent acetonitrile:methyl isobutyl ketone (1.1)
[6] = solvent acetonitrile:methyl tert-butyl ether (1:1), first line (r31)
[7] = solvent acetonitrile:methyl tert-butyl ether (1:1), second line (r33)
[8] = solvent acetonitrile:toluene (1:1)
[9] = solvent acetonitrile:water (1:1)
[10] = solvent methyl tert-butyl ether
[11] = solvent tetrahydrofuran:water (1:1)

O=C(O)c1cc(C(=O)O)c2c(n1)C(=O)C(=O)c1cc(C(=O)O)[nH]c1-2 [PQQ disodium salt, pyrroloquinoline quinone disodium salt]
Solubility @ 25 ([1]; solvent acetone:water (1:1)): 0.53 g/100 g | Solubility @ 50 ([1]; solvent acetone:water (1:1)): 1.36 g/100 g | Solubility @ 25 ([1]; solvent acetone): 0.13 g/100 g | Solubility @ 50 ([1]; solvent acetone): 0.05 g/100 g | Solubility @ 25 [1, 5]: 0.09 g/100 g | Solubility @ 50 [1, 5]: 0.04 g/100 g | Solubility @ 25 [1, 6]: 0.10 g/100 g | Solubility @ 50 [1, 6]: 0.04 g/100 g | Solubility @ 25 [1, 7]: 0.03 g/100 g | Solubility @ 50 [1, 7]: 0.02 g/100 g | Solubility @ 25 [1, 8]: 0.04 g/100 g | Solubility @ 50 [1, 8]: 0.00 g/100 g | Solubility @ 25 [1, 9]: 0.22 g/100 g | Solubility @ 50 [1, 9]: 0.14 g/100 g | Solubility @ 25 ([1]; solvent acetonitrile): 0.01 g/100 g | Solubility @ 50 ([1]; solvent acetonitrile): 0.05 g/100 g | Solubility @ 25 ([1]; solvent chloroform): 0.02 g/100 g | Solubility @ 50 ([1]; solvent chloroform): 0.03 g/100 g | Solubility @ 25 ([1]; solvent dichloromethane): 0.02 g/100 g | Solubility @ 50 ([1]; solvent dichloromethane): 0.04 g/100 g | Solubility @ 25 ([1]; solvent ethanol:water (1:1)): 0.10 g/100 g | Solubility @ 50 ([1]; solvent ethanol:water (1:1)): 0.10 g/100 g | Solubility @ 25 ([1]; solvent ethanol): 0.08 g/100 g | Solubility @ 50 ([1]; solvent ethanol): 0.11 g/100 g | Solubility @ 25 ([1]; solvent ethyl acetate): 0.11 g/100 g | Solubility @ 50 ([1]; solvent ethyl acetate): 0.09 g/100 g | Solubility @ 25 ([1]; solvent ethyl ether): 0.06 g/100 g | Solubility @ 50 ([1]; solvent ethyl ether): 0.01 g/100 g | Solubility @ 25 ([1]; solvent heptane): 0.02 g/100 g | Solubility @ 50 ([1]; solvent heptane): 0.11 g/100 g | Solubility @ 25 ([1]; solvent hexane): 0.06 g/100 g | Solubility @ 50 ([1]; solvent hexane): 0.02 g/100 g | Solubility @ 25 ([1]; solvent isopentanol): 0.02 g/100 g | Solubility @ 50 ([1]; solvent isopentanol): 0.00 g/100 g | Solubility @ 25 ([1]; solvent isopropanol): 0.09 g/100 g | Solubility @ 50 ([1]; solvent isopropanol): 0.08 g/100 g | Solubility @ 25 ([1]; solvent isopropyl acetate): 0.36 g/100 g | Solubility @ 50 ([1]; solvent isopropyl acetate): 0.03 g/100 g | Solubility @ 25 ([1]; solvent methanol:water (1:1)): 0.15 g/100 g | Solubility @ 50 ([1]; solvent methanol:water (1:1)): 0.13 g/100 g | Solubility @ 25 ([1]; solvent methanol): 0.09 g/100 g | Solubility @ 50 ([1]; solvent methanol): 0.11 g/100 g | Solubility @ 25 ([1]; solvent methyl ethyl ketone): 0.16 g/100 g | Solubility @ 50 ([1]; solvent methyl ethyl ketone): 0.06 g/100 g | Solubility @ 25 ([1]; solvent methyl isobutyl ketone): 0.05 g/100 g | Solubility @ 50 ([1]; solvent methyl isobutyl ketone): 0.07 g/100 g | Solubility @ 25 [1, 10]: 0.05 g/100 g | Solubility @ 50 [1, 10]: 0.03 g/100 g | Solubility @ 25 ([1]; solvent nitromethane): 0.01 g/100 g | Solubility @ 50 ([1]; solvent nitromethane): 0.02 g/100 g | Solubility @ 25 [1, 11]: 0.24 g/100 g | Solubility @ 50 [1, 11]: 0.29 g/100 g | Solubility @ 25 ([1]; solvent tetrahydrofuran): 0.15 g/100 g | Solubility @ 50 ([1]; solvent tetrahydrofuran): 0.24 g/100 g | Solubility @ 25 ([1]; solvent toluene): 0.02 g/100 g | Solubility @ 50 ([1]; solvent toluene): 0.05 g/100 g | Solubility @ 25 ([1]; solvent water): 0.37 g/100 g | Solubility @ 50 ([1]; solvent water): 0.89 g/100 g

O=C(O)c1cc(C(=O)O)c2c(n1)C(=O)C(=O)c1cc(C(=O)O)[nH]c1-2 [crystal E, pyrroloquinoline quinone disodium salt]
moisture absorption ([2]; 40% RH): 11.8% | moisture absorption ([2]; 65% RH): 13.0% | moisture absorption ([2]; 80% RH): 13.6% | hygroscopicity compared among crystal forms (overlay of DVS graphs) [2]: largest hygroscopicity | variation of hygroscopicity [2]: less than 2% | hygroscopicity (in words) [2]: rather hygroscopic; also recorded: slightly hygroscopic

O=C(O)c1cc(C(=O)O)c2c(n1)C(=O)C(=O)c1cc(C(=O)O)[nH]c1-2 [crystalline Form A, pyrroloquinoline quinone disodium salt]
Solvent content (%) [3]: 7.4% | Crystal form stability [4]: Stable | moisture absorption ([2]; 40% RH): 1.6% | hygroscopicity compared among crystal forms (overlay of DVS graphs) [2]: smallest hygroscopicity | variation of hygroscopicity [2]: less than 2% | hygroscopicity (in words) [2]: only slightly hygroscopic

O=C(O)c1cc(C(=O)O)c2c(n1)C(=O)C(=O)c1cc(C(=O)O)[nH]c1-2 [crystalline Form B, pyrroloquinoline quinone disodium salt]
Solvent content (%) [3]: 12.2% | Crystal form stability [4]: Stable | moisture absorption ([2]; 40% RH): 7.3% | hygroscopicity compared among crystal forms (overlay of DVS graphs) [2]: medium hygroscopicity; also recorded: relatively large hygroscopicity

O=C(O)c1cc(C(=O)O)c2c(n1)C(=O)C(=O)c1cc(C(=O)O)[nH]c1-2 [crystalline Form C, pyrroloquinoline quinone disodium salt]
Solvent content (%) [3]: 11.4% | moisture absorption ([2]; 40% RH): 7.8% | hygroscopicity compared among crystal forms (overlay of DVS graphs) [2]: largest hygroscopicity | hygroscopicity (in words) [2]: highly hygroscopic
